Activity calls are given as the source filed them.
Tests used:
[1] = target: T1, Fatty-acid amide hydrolase 1 (Homo sapiens, UniProt O00519); assay: Inhibition of human recombinant FAAH using arachidonoyl as substrate preincubated for 5 mins followed by substrate addition by fluorescence based assay
T1 sequence (O00519 whole entry): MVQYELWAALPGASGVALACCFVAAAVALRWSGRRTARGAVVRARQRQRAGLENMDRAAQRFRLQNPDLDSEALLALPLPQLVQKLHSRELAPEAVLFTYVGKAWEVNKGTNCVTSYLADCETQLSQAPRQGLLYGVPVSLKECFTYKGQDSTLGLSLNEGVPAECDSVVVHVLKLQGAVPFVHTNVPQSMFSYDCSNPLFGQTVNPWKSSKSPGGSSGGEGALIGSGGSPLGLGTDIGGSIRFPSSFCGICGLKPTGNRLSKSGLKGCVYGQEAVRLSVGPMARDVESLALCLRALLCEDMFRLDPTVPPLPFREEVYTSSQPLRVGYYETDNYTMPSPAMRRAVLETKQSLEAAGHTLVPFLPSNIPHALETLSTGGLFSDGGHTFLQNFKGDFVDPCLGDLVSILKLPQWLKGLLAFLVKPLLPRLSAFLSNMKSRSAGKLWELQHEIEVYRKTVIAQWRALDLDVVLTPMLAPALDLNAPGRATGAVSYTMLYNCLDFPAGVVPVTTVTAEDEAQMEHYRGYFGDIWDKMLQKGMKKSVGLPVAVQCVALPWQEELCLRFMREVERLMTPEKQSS

[2] = target: T2, Fatty-acid amide hydrolase 1 (Homo sapiens) (UniProt O00519); assay: Reversible inhibition of FAAH (unknown origin) using arachidonoyl as substrate by jump dilution method; conditions: time <= 60.0 min
T2 sequence (whole entry): T1 sequence (O00519 whole entry)

[3] = target: T2, Fatty-acid amide hydrolase 1 (Homo sapiens); assay: Non-competitive inhibition of FAAH (unknown origin) assessed as decrease in Vmax at 10 to 40 nM using arachidonoyl as substrate by Lineweaver-Burk plot analysis; conditions: dose 10-40 nM
[4] = target: T2, Fatty-acid amide hydrolase 1 (Homo sapiens); assay: Non-competitive inhibition of FAAH (unknown origin) assessed as increase in Km at 10 to 40 nM using arachidonoyl as substrate by Lineweaver-Burk plot analysis; conditions: dose 10-40 nM
[5] = target: T1, Fatty-acid amide hydrolase 1; assay: Non-competitive inhibition of FAAH (unknown origin) using arachidonoyl as substrate by Dixon plot analysis
[6] = Permeability of the compound across blood brain barrier incubated for 18 hrs by UV plate reader based PAMPA assay; assay type: ADME, tissue-based; conditions: read-out: permeability
SH-SY5Y [7] = assay: Cytotoxicity against human SH-SY5Y cells assessed as cell death upto 100 uM after 24 hrs by MTT assay; assay type: toxicity, cell-based
SH-SY5Y [8] = assay: Neuroprotective activity against LPS-induced cell death in human SH-SY5Y cells assessed as cell viability at 100 uM after 24 hrs by MTT assay; assay type: functional; conditions: read-out: Activity
SH-SY5Y [9] = assay: Neuroprotective activity against LPS-induced cell death in human SH-SY5Y cells assessed as cell viability at 30 uM after 24 hrs by MTT assay; assay type: functional; conditions: read-out: Activity
[10] = Acute toxicity in rat assessed as body weight at 2000 mg/kg, po measured after 14 days; assay type: organism-based; conditions: in vivo, 336 h, time 14 day
[11] = Acute toxicity in rat assessed as reduction in food and water consumption at 2000 mg/kg, po measured after 14 days; assay type: organism-based; conditions: in vivo, 336 h, time 14 day
[12] = Acute toxicity in rat assessed as behavioral abnormalities at 2000 mg/kg, po measured after 14 days; assay type: organism-based; conditions: in vivo, 336 h, time 14 day
[13] = Acute toxicity in rat assessed as SGOT level at 2000 mg/kg, po measured after 14 days; assay type: organism-based; conditions: in vivo, 336 h, time 14 day
[14] = Acute toxicity in rat assessed as SGPT level at 2000 mg/kg, po measured after 14 days; assay type: organism-based; conditions: in vivo, 336 h, time 14 day
[15] = Acute toxicity in rat assessed as effect on total bilirubin level at 2000 mg/kg, po measured after 14 days; assay type: organism-based; conditions: in vivo, 336 h, time 14 day
[16] = Acute toxicity in rat assessed as serum uric acid level at 2000 mg/kg, po measured after 14 days; assay type: organism-based; conditions: in vivo, 336 h, time 14 day
[17] = Acute toxicity in rat assessed as serum cholestrol level at 2000 mg/kg, po measured after 14 days; assay type: organism-based; conditions: in vivo, 336 h, time 14 day
[18] = Acute toxicity in rat assessed as serum alkaline phosphates level at 2000 mg/kg, po measured after 14 days; assay type: organism-based; conditions: in vivo, 336 h, time 14 day
[19] = Acute toxicity in rat assessed as serum triglycerides level at 2000 mg/kg, po measured after 14 days; assay type: organism-based; conditions: in vivo, 336 h, time 14 day
[20] = Acute toxicity in rat assessed as WBC level at 2000 mg/kg, po measured after 14 days; assay type: organism-based; conditions: in vivo, 336 h, time 14 day
[21] = Acute toxicity in rat assessed as neutrophils level at 2000 mg/kg, po measured after 14 days; assay type: organism-based; conditions: in vivo, 336 h, time 14 day
[22] = Acute toxicity in rat assessed as lymphocytes level at 2000 mg/kg, po measured after 14 days; assay type: organism-based; conditions: in vivo, 336 h, time 14 day
[23] = Acute toxicity in rat assessed as hemoglobin level at 2000 mg/kg, po measured after 14 days; assay type: organism-based; conditions: in vivo, 336 h, time 14 day
[24] = Acute toxicity in rat assessed as RDW level at 2000 mg/kg, po measured after 14 days; assay type: organism-based; conditions: in vivo, 336 h, time 14 day
[25] = Acute toxicity in rat assessed as MPV level at 2000 mg/kg, po measured after 14 days; assay type: organism-based; conditions: in vivo, 336 h, time 14 day
[26] = Acute toxicity in female rat assessed as effect on liver histopathology at 2000 mg/kg, po measured after 14 days; assay type: organism-based; conditions: in vivo, 336 h, time 14 day
Rattus norvegicus [27] = assay: Antinociceptive activity in CCI surgery-neuropathic pain induced nerve injured rat model assessed as increase in mechanical ipsilateral paw withdrawal threshold at 5 to 20 mg/kg for 30 to 240 mins measured on day 14; assay type: functional, organism-based; conditions: dose 5-20 mg/kg, time 30-240 min
Rattus norvegicus [28] = assay: Antinociceptive activity in CCI surgery-neuropathic pain induced nerve injured rat model assessed tail flick latency at 5 to 20 mg/kg for 60 to 120 mins measured on day 14; assay type: functional, organism-based; conditions: dose 5-20 mg/kg, time 60-120 min
[29] = Effect on motor coordination in CCI surgery-neuropathic pain induced nerve injured rat model at 20 mg/kg by rotarod test; assay type: toxicity, organism-based; conditions: in vivo
[30] = Effect on locomotory activity in CCI surgery-neuropathic pain induced nerve injured rat model at 20 mg/kg by rotarod test; assay type: toxicity, organism-based; conditions: in vivo
[31] = Cmax in 12 to 16 hrs fasted Wistar rat at 20 mg/kg, po measured after 0.5 to 48 hrs by HPLC analysis; assay type: ADME, organism-based; parameters: time upper 16 hrs, dose 20 mg/kg, time lower 12 hrs, route po; conditions: in vivo
[32] = Tmax in 12 to 16 hrs fasted Wistar rat at 20 mg/kg, po measured after 0.5 to 48 hrs by HPLC analysis; assay type: ADME, organism-based; conditions: in vivo, time 12-16 hrs
[33] = AUC(0 to t) in 12 to 16 hrs fasted Wistar rat at 20 mg/kg, po measured after 0.5 to 48 hrs by HPLC analysis; assay type: ADME, organism-based; parameters: time upper 16 hrs, dose 20 mg/kg, time lower 12 hrs, route po; conditions: in vivo
[34] = Half life in 12 to 16 hrs fasted Wistar rat at 20 mg/kg, po measured after 0.5 to 48 hrs by HPLC analysis; assay type: ADME, organism-based; conditions: in vivo, time 12-16 hrs
[35] = MRT (0 to infinity) in 12 to 16 hrs fasted Wistar rat at 20 mg/kg, po measured after 0.5 to 48 hrs by HPLC analysis; assay type: ADME, organism-based; conditions: in vivo, time 12-16 hrs
[36] = Aqueous solubility of compound in PBS at pH 7.4 measured for 20 hrs by HPLC-UV analysis; assay type: physicochemical
Rattus norvegicus [37] = assay: Ex vivo inhibition in rat brain assessed as reduction in FAAH level at 10 to 20 mg/kg, ip incubated for 20 mins in presence of AMC by fluorescence based multimode reader analysis; assay type: functional, organism-based; conditions: dose 10-20 mg/kg
[38] = target: T3, Monoglyceride lipase (Rattus norvegicus) (UniProt Q8R431); assay: Ex vivo inhibition in rat brain assessed as reduction in MAGL level at 10 to 20 mg/kg, ip incubated for 20 mins in presence of NPA by fluorescence based multimode reader analysis; assay type: functional, organism-based; conditions: dose 10-20 mg/kg
T3 sequence (whole entry): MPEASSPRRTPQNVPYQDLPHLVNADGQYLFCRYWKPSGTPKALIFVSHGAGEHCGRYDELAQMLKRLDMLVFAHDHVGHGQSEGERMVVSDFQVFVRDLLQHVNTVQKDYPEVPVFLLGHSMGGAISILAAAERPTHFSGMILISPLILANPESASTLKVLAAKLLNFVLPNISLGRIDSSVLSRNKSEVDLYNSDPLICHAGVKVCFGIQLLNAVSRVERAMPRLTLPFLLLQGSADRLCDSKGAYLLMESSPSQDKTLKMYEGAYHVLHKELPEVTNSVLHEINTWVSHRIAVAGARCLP

CS(=O)(=O)c1ccc(NC(=O)N/N=C\c2c(Cl)cccc2Cl)cc1
IC50 [1]: 11 nM
inhibition [2]: Active
inhibition [3]: Active
inhibition [4]: Active
Ki [5]: 28 nM
Papp at 18 h [6]: 10.2 ×10⁻⁶ cm/s
Activity (SH-SY5Y [7]): Non-Toxic
viability at 100 µM (SH-SY5Y [8]): 80%
viability at 30 µM (SH-SY5Y [9]): 70%
Activity [10]: Non-Toxic
Activity [11]: Non-Toxic
Activity [12]: Non-Toxic
Activity [13]: Non-Toxic
Activity [14]: Non-Toxic
Activity [15]: Non-Toxic
Activity [16]: Non-Toxic
Activity [17]: Non-Toxic
Activity [18]: Non-Toxic
Activity [19]: Non-Toxic
Activity [20]: Non-Toxic
Activity [21]: Non-Toxic
Activity [22]: Non-Toxic
Activity [23]: Non-Toxic
Activity [24]: Non-Toxic
Activity [25]: Non-Toxic
Activity [26]: Non-Toxic
Activity (Rattus norvegicus [27]): Active
Activity (Rattus norvegicus [28]): Active
Activity [29]: Non-Toxic
Activity [30]: Non-Toxic
Cmax [31]: 22000 ng/mL
Tmax [32]: 30 min
AUC(0-t) [33]: 8920 ng·h/mL
half-life [34]: 34.8 min
MRT inf [35]: 30 min
solubility at 20 h [36]: < 1 µg/mL
Activity (Rattus norvegicus [37]): Active
Activity [38]: Active

Source: ChEMBL document CHEMBL5143629, “Synthesis and evaluation of dual fatty acid amide hydrolase-monoacylglycerol lipase inhibition and antinociceptive activities of 4-methylsulfonylaniline-derived semicarbazones” (Bioorg Med Chem, 2022)
